Data taken from PubChem BioAssay (NCI).
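Test compounds were applied to cells in 96-well plates for 48 hours at 5 doses. At the TGI there is no net growth.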

Tests used:
Test in all cases: inhibition of tumour cell growth, NCI panel, 48 h
SN12C renal = test system: SN12C renal
SF-539 CNS = test system: SF-539 CNS
COLO 205 colon = test system: COLO 205 colon
ACHN renal = test system: ACHN renal
SNB-75 CNS = test system: SNB-75 CNS
CCRF-CEM leukemia = test system: CCRF-CEM leukemia
SK-MEL-5 melanoma = test system: SK-MEL-5 melanoma
UACC-257 melanoma = test system: UACC-257 melanoma
SF-295 CNS = test system: SF-295 CNS
A498 renal = test system: A498 renal
UACC-62 melanoma = test system: UACC-62 melanoma
NCI-H460 lung = test system: NCI-H460 lung
OVCAR-3 ovarian = test system: OVCAR-3 ovarian
T-47D breast = test system: T-47D breast
HT29 colon = test system: HT29 colon
BT-549 breast = test system: BT-549 breast
K-562 leukemia = test system: K-562 leukemia
NCI-H23 lung = test system: NCI-H23 lung

Row | Structure (SMILES) | TGI (SN12C renal) [µM] | TGI (SF-539 CNS) [µM] | TGI (COLO 205 colon) [µM] | TGI (ACHN renal) [µM] | TGI (SNB-75 CNS) [µM] | TGI (CCRF-CEM leukemia) [µM] | TGI (SK-MEL-5 melanoma) [µM] | TGI (UACC-257 melanoma) [µM] | TGI (SF-295 CNS) [µM] | TGI (A498 renal) [µM] | TGI (UACC-62 melanoma) [µM] | TGI (NCI-H460 lung) [µM] | TGI (OVCAR-3 ovarian) [µM] | TGI (T-47D breast) [µM] | TGI (HT29 colon) [µM] | TGI (BT-549 breast) [µM] | TGI (K-562 leukemia) [µM] | TGI (NCI-H23 lung) [µM]
1 | COC(=O)C(Cc1c(-c2[nH]c3ccccc3c2CC(NC(C)=O)C(=O)OC)[nH]c2ccccc12)NC(C)=O (configuration not stated) | > 100 | > 100 | > 100 | > 100 | > 100 | > 100 | > 100 | > 100 | > 100 | > 100 | > 100 | > 100 | > 100 | > 100 | > 100 | > 100 | > 100 | > 100
2 | O=C(Cc1csc2[n+]1C(=O)/C(=C/c1ccc(Cl)cc1)S2)Nc1ccccc1 | > 100 | 84.2 | 30.2 | 61.6 | 94.6 | > 100 | 26.6 | 58.3 | > 100 | 40.1 | 32 | 48.8 | 27.7 | > 100 | 76.1 | 60.3 | > 100 | 91.3
3 | CC(/C=C/c1ccccc1)=N\NC(=S)N/N=C(C)/C=C/c1ccccc1 | > 100 | 47.2 | > 100 | > 100 | 48.7 | > 100 | 42.8 | > 100 | 61.6 | 7.51 | > 100 | 25.6 | 66.5 | > 100 | > 100 | 56.7 | > 100 | > 100
4 | O=c1c2ccccc2nc(-c2ccccc2)n1/N=C/c1ccccc1[N+](=O)[O-] | > 100 | > 100 | > 100 | > 100 | 34.2 | > 100 | > 100 | > 100 | > 83.3 | > 100 | > 100 | > 100 | > 100 | > 100 | > 100 | > 100 | > 100 | 58.8
